Results as given in the NIST ThermoML archive (doi:10.1021/je8004134).
Where “and” joins values, the source holds several entries; their conditions need not be identical. Identical values can stand only once. Numbers after ± are expanded uncertainties.

Experiments:
[1] = 298.15 K, 101 kPa, Liquid; for speed of sound: Sing-around technique in a fixed-path interferometer; for mass density: Vibrating tube method
[2] = an = ratio of the nth substance listed, in mol/kg; details: 298.15 K, 101 kPa, Liquid; for speed of sound: Sing-around technique in a fixed-path interferometer; for mass density: Vibrating tube method

CC(=O)N(C)C [N,N-dimethylethanamide]
[1]
Details	mass density	speed of sound [m/s]
–	936.22 ± 0.25 kg/m3 [middle of 9 runs]	1455.4 ± 1.2

[Ni+2].[O-][Cl+3]([O-])([O-])[O-].[O-][Cl+3]([O-])([O-])[O-] [nickel perchlorate] + CC(=O)N(C)C
[2]
Details	mass density [kg/m3]	speed of sound [m/s]
a1 = 0.03452	943.693 ± 0.32	1460.5 ± 1.2
a1 = 0.06515	950.677 ± 0.32	1464.3 ± 1.2
a1 = 0.096	957.709 ± 0.32	1468.2 ± 1.2
a1 = 0.1279	964.983 ± 0.32	1472.3 ± 1.2
a1 = 0.1604	972.395 ± 0.31	1476.5 ± 1.2
a1 = 0.1898	979.089 ± 0.31	1480.4 ± 1.2
a1 = 0.2198	985.93 ± 0.31	1484.6 ± 1.2
a1 = 0.2504	992.904 ± 0.31	1489 ± 1.2

CC(=O)N(C)C [N,N-dimethylethanamide] + [Cl][Co][Cl]
[2], a2 = 0
Details	mass density [kg/m3]	speed of sound [m/s]
–	936.417 ± 0.25	1455.4 ± 1.2

C[S+](C)[O-] [dimethyl sulfoxide] + [Ni+2].[O-][Cl+3]([O-])([O-])[O-].[O-][Cl+3]([O-])([O-])[O-]
[2], a2 = 0
Details	mass density [kg/m3]	speed of sound [m/s]
–	1095.19 ± 0.37	1484.1 ± 1.2

CC(=O)N(C)C [N,N-dimethylethanamide] + [Cl][Ni][Cl]
[2], a2 = 0
Details	mass density [kg/m3]	speed of sound [m/s]
–	936.23 ± 0.25	1455.4 ± 1.2

C[S+](C)[O-] [dimethyl sulfoxide]
[1]
Details	mass density	speed of sound [m/s]
–	1095.19 ± 0.37 kg/m3 and 1095.2 ± 0.38 kg/m3 and 1095.19 ± 0.33 kg/m3	1484.1 ± 1.2

CC(=O)N(C)C [N,N-dimethylethanamide] + [Cl][Mn][Cl]
[2], a2 = 0
Details	mass density [kg/m3]	speed of sound [m/s]
–	936.233 ± 0.25	1455.4 ± 1.2

[Cl][Mn][Cl] [manganese chloride] + CC(=O)N(C)C
[2]
Details	mass density [kg/m3]	speed of sound [m/s]
a1 = 0.05753	942.406 ± 0.25	1458.5 ± 1.2
a1 = 0.1146	948.611 ± 0.25	1461.2 ± 1.2
a1 = 0.1691	954.924 ± 0.25	1463.8 ± 1.2
a1 = 0.222	961.136 ± 0.25	1466.5 ± 1.2
a1 = 0.2756	967.302 ± 0.25	1469.4 ± 1.2
a1 = 0.3266	973.327 ± 0.24	1472.2 ± 1.2
a1 = 0.3813	979.1 ± 0.24	1475.5 ± 1.2
a1 = 0.433	984.866 ± 0.24	1478.6 ± 1.2

C[S+](C)[O-] [dimethyl sulfoxide] + [Cl][Mn][Cl]
[2], a2 = 0
Details	mass density [kg/m3]	speed of sound [m/s]
–	1095.19 ± 0.33	1484.1 ± 1.2

[Cl][Co][Cl] [cobalt chloride] + CC(=O)N(C)C
[2]
Details	mass density [kg/m3]	speed of sound [m/s]
a1 = 0.02558	938.7 ± 0.25	1456.5 ± 1.2
a1 = 0.05173	941.28 ± 0.25	1457.3 ± 1.2
a1 = 0.07676	943.75 ± 0.25	1458 ± 1.2
a1 = 0.1024	946.279 ± 0.24	1458.9 ± 1.2
a1 = 0.1289	948.892 ± 0.24	1459.8 ± 1.2
a1 = 0.1539	951.355 ± 0.24	1460.7 ± 1.2
a1 = 0.181	954.035 ± 0.24	1461.6 ± 1.2
a1 = 0.2056	956.46 ± 0.24	1462.6 ± 1.2

[Cl][Cu][Cl] [copper chloride] + C[S+](C)[O-]
[2]
Details	mass density [kg/m3]	speed of sound [m/s]
a1 = 0.04097	1100.01 ± 0.33	1485.3 ± 1.2
a1 = 0.05136	1101.21 ± 0.33	1485.5 ± 1.2
a1 = 0.0616	1102.39 ± 0.33	1485.8 ± 1.2
a1 = 0.07134	1103.53 ± 0.33	1486 ± 1.2
a1 = 0.08195	1104.77 ± 0.33	1486.2 ± 1.2
a1 = 0.09202	1105.94 ± 0.33	1486.4 ± 1.2
a1 = 0.1022	1107.13 ± 0.33	1486.6 ± 1.2

C[S+](C)[O-] [dimethyl sulfoxide] + [O-][Cl+3]([O-])([O-])[O-].[O-][Cl+3]([O-])([O-])[O-].[Zn+2]
[2], a2 = 0
Details	mass density [kg/m3]	speed of sound [m/s]
–	1095.2 ± 0.38	1484.1 ± 1.2

C[S+](C)[O-] [dimethyl sulfoxide] + [Mn+2].[O-][Cl+3]([O-])([O-])[O-].[O-][Cl+3]([O-])([O-])[O-]
[2], a2 = 0
Details	mass density [kg/m3]	speed of sound [m/s]
–	1095.19 ± 0.37	1484.1 ± 1.2
